This is an account of results in patent US5250542A, “Peripherally selective piperidine carboxylate opioid antagonists” (Eli Lilly and Company, priority 1992, dated 1993).

Assay [1] has as its target T1, peripheral opioid receptors (Mus musculus, UniProt P42866).
T1 construct: Mice maintained (6 mice/cage) on 0.01M saccharin water with 1 g/1 morphine sulfate; from tissue; host or cells: living morphine-maintained mice (in vivo test; endogenous receptor)
Kind of assay: precipitated diarrhea in morphine-maintained mice (peripheral opioid activity) and comparison with the writhing test. Format: in vivo. As to conditions: for Ratio (AD50 mouse writhing test / ED50 mouse diarrhea test): higher ratio = greater relative antagonism of peripheral opioid receptors; for ED50: mouse, 0.5 h, morphine-maintained mice, antagonist subcutaneous or oral, 30 min observation. An outline of the steps: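 Morphine-dependent mice (1 g/l morphine sulfate in drinking water ≥10 days, withdrawn 45 min before dosing) received antagonist subcutaneously or orally, 5 mice/dose. Diarrhea (and jumping) were scored over 30 min and doses lowered to find the diarrhea threshold. Peripheral selectivity was taken as writhing AD50 divided by diarrhea ED50.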

The next assay deals with T2, opioid receptor (Mus musculus, UniProt P42866).
T2 construct: Five CF-1 male mice (Charles River, Portage, Mich.); from tissue; host or cells: living CF-1 male mice (in vivo test; endogenous receptor)
The assay can be described thus: mouse writhing analgesis test: block of morphine-induced analgesia. Format: in vivo, CF-1 male mice. On the set-up: unit not given here. The settings on record: dose of antagonist that reduced the inhibition of writhing produced by 1.25 mg/kg morphine sulfate to 50%; subcutaneous, 20 min before acetic acid. The gist of the method:
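Male CF-1 mice (~20 g, fasted overnight, n=5) dosed subcutaneously 20 min before i.p. 0.6% acetic acid; writhes counted for 10 min starting 5 min post-injection. Antagonism measured as blockade of morphine-induced inhibition of writhing, percent versus vehicle controls; ED50 defined as 50% writhing inhibition.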
(In writhing tests, fewer writhes than in controls are read as antinociception.)

For a further assay, the target named is T3, mu receptor (Rattus norvegicus, UniProt P33535).
T3 construct: rat whole brain minus cerebellum for mu was homogenized; from tissue; host or cells: brain of male Sprague Dawley rats, whole brain minus cerebellum, homogenate fraction
Kind of assay: opioid receptor binding assay, [3H] NAL (tritiated naloxone), mu receptor. On the set-up: species or system rat (Male Sprague Dawley), brain minus cerebellum. An outline of the steps: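 Displacement of [3H]naloxone was measured on rat whole brain minus cerebellum membranes, preincubated 20 min and incubated 20 min at 37° C, with filtration separating bound ligand. Ki was derived from IC50 and ligand KD. Percent displacement was also recorded at 10 nM and 100 nM test compound.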

[2] abbreviates: 20 min, read-out: % displacement at 10 nM, 10 nM test compound, [3H] naloxone 0.5 nM.
[3] abbreviates: 20 min, read-out: % displacement at 100 nM, 100 nM test compound, [3H] naloxone 0.5 nM.
Where [4] appears, read: 20 min, read-out: % displacement at 100 nM.

Where a name gives a salt, the structure may show the parent alone. Read-outs that look alike come from different tables or passages of the source.

T1 sequence (P42866 whole entry): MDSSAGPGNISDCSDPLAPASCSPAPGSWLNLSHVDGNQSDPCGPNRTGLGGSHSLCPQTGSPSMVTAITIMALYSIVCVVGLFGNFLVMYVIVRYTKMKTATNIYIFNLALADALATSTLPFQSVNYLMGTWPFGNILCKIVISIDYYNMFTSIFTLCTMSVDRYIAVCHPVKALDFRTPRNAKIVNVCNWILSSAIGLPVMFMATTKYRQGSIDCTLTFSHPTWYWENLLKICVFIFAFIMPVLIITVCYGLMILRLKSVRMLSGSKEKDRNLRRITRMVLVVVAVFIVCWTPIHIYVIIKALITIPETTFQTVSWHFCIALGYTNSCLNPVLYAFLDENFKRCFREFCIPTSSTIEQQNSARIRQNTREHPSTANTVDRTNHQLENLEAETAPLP
T2 sequence (P42866 whole entry): as above
T3 sequence (P33535 whole entry): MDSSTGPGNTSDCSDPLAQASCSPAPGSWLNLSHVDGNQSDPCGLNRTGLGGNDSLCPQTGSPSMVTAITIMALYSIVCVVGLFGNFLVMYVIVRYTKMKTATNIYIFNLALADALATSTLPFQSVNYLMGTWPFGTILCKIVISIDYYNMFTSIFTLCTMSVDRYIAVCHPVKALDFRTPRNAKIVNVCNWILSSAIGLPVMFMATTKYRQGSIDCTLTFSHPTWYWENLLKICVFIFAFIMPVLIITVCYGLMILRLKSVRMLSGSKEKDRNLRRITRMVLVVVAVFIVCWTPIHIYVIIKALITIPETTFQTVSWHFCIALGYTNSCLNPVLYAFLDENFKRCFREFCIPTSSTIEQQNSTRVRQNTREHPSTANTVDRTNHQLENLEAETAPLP

In general, ED50 refers to the midpoint of the dose-response relation. The term Ki denotes the equilibrium dissociation constant of an inhibitor or competing ligand from its target. Turning to `CNC(=O)CCCNC(=O)C(CC1CCCCC1)CN1CC[C@@](C)(c2cccc(O)c2)[C@@H](C)C1` (some centres unmarked) [Example 41, N-[4-(methylamino)-4-oxobutyl]-3-[4-(3-hydroxyphenyl)-3,4-dimethyl-1-piperidinyl]-2-cyclohexylmethylpropanamide monohydrochloride], in assay [1], the “Ratio (AD50 mouse writhing test / ED50 mouse diarrhea test)” value is reported as 26 and it took a dose of 0.17 mg/kg to reach the 50% effect level (ED50). The AD50 on opioid receptor stood at 4.5. For the same molecule, the inhibition constant (Ki) on mu receptor turned out to be 0.39 nM. In addition, the inhibition at 0.01 µM on mu receptor (setting [2]) was found to be 100%. Further, the inhibition at 0.1 µM at mu receptor (setting [3]) turned out to be 100%.
As for `CCNC(=O)CCCNC(=O)C(CC1CCCCC1)CN1CC[C@@](C)(c2cccc(O)c2)[C@@H](C)C1` (some centres unmarked) [Example 42, N-[4-(ethylamino)-4-oxobutyl]-3-[4-(3--hydroxyphenyl)-3,4-dimethyl-1-piperidinyl[-2-cyclohexyl-methylpropanamide monohydrate hydrochloride], in assay [1], the “Ratio (AD50 mouse writhing test / ED50 mouse diarrhea test)” value amounted to 8 and the ED50 came out at 0.26 mg/kg. The molecule further had an AD50 at opioid receptor of 2.1. For the same molecule, the Ki at mu receptor is 0.57 nM. Besides, the inhibition at 0.01 µM on mu receptor (setting [2]) was determined as 100%. Besides, the inhibition at 0.1 µM on mu receptor (setting [4]) worked out at 97%.
On to `CCOC(=O)CNC(=O)C(Cc1ccccc1)CN1CC[C@@](C)(c2cccc(O)c2)[C@@H](C)C1` (some centres unmarked) [Example 43, 2-[3-[4-(3-hydroxyphenyl)-3,4-dimethyl-1-piperidinyl]-1-oxo-2-(phenylmethyl)propyl]-amino]acetic acid ethyl ester hydrochloride], for which, in assay [1], the “Ratio (AD50 mouse writhing test / ED50 mouse diarrhea test)” value was 146 and the 50% effect level (ED50) was put at a dose of 0.013 mg/kg. Moreover, the AD50 at opioid receptor is listed as 1.9. This molecule also had an inhibition constant Ki at mu receptor of 0.64 nM. The inhibition at 0.01 µM at mu receptor (setting [2]) stood at 98%. In addition, the inhibition at 0.1 µM at mu receptor (setting [3]) worked out at 99%.
`C[C@H]1CN(CC(Cc2ccccc2)C(=O)NCC(=O)O)CC[C@@]1(C)c1cccc(O)c1` (some centres unmarked) [Example 44, 2-[[3-[4-(3-hydroxyphenyl)-3,4-dimethyl-1-piperidinyl]-1-oxo-2-(phenylmethyl)propyl]-amino]acetic acid monohydrate]: in assay [1], the “Ratio (AD50 mouse writhing test / ED50 mouse diarrhea test)” value is over 266 and the 50% effect level (ED50) was put at a dose of 0.15 mg/kg. Moreover, the AD50 at opioid receptor is recorded as over 40. The inhibition at 0.01 µM at mu receptor (20 min, read-out: % displacement at 10 nM) was 87%. In addition, the inhibition at 0.1 µM at mu receptor (setting [4]) stood at 94%. Moreover, the Ki on mu receptor ([3H] naloxone 0.5 nM, pH 7.4, 37° C., 20 min, read-out: Ki) stood at 0.89 nM.
As for `CCNC(=O)CNC(=O)C(Cc1ccccc1)CN1CC[C@@](C)(c2cccc(O)c2)[C@@H](C)C1` (some centres unmarked) [Example 45, N-ethyl-2-[[2-(phenylmethyl-)-1-oxo-3-[4-(3-hydroxyphenyl)-3,4-dimethyl-1-piperidinyl]propyl]-amino]ethanamide], in assay [1], the “Ratio (AD50 mouse writhing test / ED50 mouse diarrhea test)” value is 11 and the 50% effect level (ED50) was put at a dose of 0.24 mg/kg. The AD50 on opioid receptor is recorded as 2.6. Besides, on mu receptor, the affinity corresponds to a Ki of 1.28 nM. For the same molecule, the inhibition at 0.01 µM at mu receptor (setting [2]) worked out at 93%. The inhibition at 0.1 µM at mu receptor (setting [4]) was 98%.
Take `C[C@H]1CN(CC(Cc2ccccc2)C(=O)NCC(N)=O)CC[C@@]1(C)c1cccc(O)c1` (some centres unmarked) [Example 46, N-(2-amino-2-oxoethyl)-3-[3,4-dimethyl-4-(3-hydroxyphenyl)-1-piperidinyl]-2-phenylmethyl propanamide monohydrochloride monohydrate]: in assay [1], the “Ratio (AD50 mouse writhing test / ED50 mouse diarrhea test)” value amounted to 571 and the ED50 is 0.07 mg/kg. The same molecule showed an AD50 on opioid receptor of 40. The molecule also yielded an inhibitory constant (Ki) on mu receptor of 0.31 nM. Moreover, the inhibition at 0.01 µM on mu receptor (setting [2]) stood at 99%. The inhibition at 0.1 µM on mu receptor (setting [3]) turned out to be 95%.
For the molecule `C[C@H]1CN(CC(Cc2ccccc2)C(=O)NCC(=O)N(C)C)CC[C@@]1(C)c1cccc(O)c1` (some centres unmarked) [Example 47, N,N-dimethyl-2-[[3-4-(3-hydroxyphenyl)-3,4-dimethyl-1-piperidinyl]-2-(phenylmethyl)-1-oxypropyl]amino]acetamide monohydrochloride monohydrate], in assay [1], the “Ratio (AD50 mouse writhing test / ED50 mouse diarrhea test)” value worked out at 267 and the ED50 is 0.15 mg/kg. Besides, the AD50 on opioid receptor amounted to 40. Moreover, the Ki at mu receptor was found to be 2.11 nM. For the same molecule, the inhibition at 0.01 µM on mu receptor (setting [2]) came to 89%. For the same molecule, the inhibition at 0.1 µM at mu receptor (setting [3]) was 95%.
As for `CC(C)NC(=O)CNC(=O)C(Cc1ccccc1)CN1CC[C@@](C)(c2cccc(O)c2)[C@@H](C)C1` (some centres unmarked) [Example 48, N-(1-methylethyl)-2-[[3-[4-(3-hydroxyphenyl)-3,4-dimethyl-1-piperidinyl]-2-(phenylmethyl)-1-oxopropyl]amino]acetamide hydrochloride monohydrate], in assay [1], the “Ratio (AD50 mouse writhing test / ED50 mouse diarrhea test)” value is given as over 400 and the median effective dose (ED50) was 0.1 mg/kg. The AD50 on opioid receptor is listed as over 40. On mu receptor, this molecule returned a Ki of 1.82 nM. Besides, the inhibition at 0.01 µM at mu receptor (setting [2]) was 96%. Besides, the inhibition at 0.1 µM on mu receptor (setting [3]) was 100%.
As to `CCCNC(=O)CNC(=O)C(Cc1ccccc1)CN1CC[C@@](C)(c2cccc(O)c2)[C@@H](C)C1` (some centres unmarked) [Example 49, N-2-propylamino-2-oxoethyl]-3-[4-(3-hydroxyphenyl)-3,4-dimethyl-1-piperidinyl]-2-phenylmethyl propanamide monohydrate hydrochloride], in assay [1], the “Ratio (AD50 mouse writhing test / ED50 mouse diarrhea test)” value worked out at 61 and the ED50 was determined as 0.1 mg/kg. Moreover, the AD50 at opioid receptor was 6.08. Besides, at mu receptor, affinity was put at a Ki of 0.54 nM. The inhibition at 0.01 µM on mu receptor (setting [2]) came to 98%. On mu receptor (setting [3]), the inhibition at 0.1 µM turned out to be 100%.
In the case of `CC(C)CNC(=O)CNC(=O)C(Cc1ccccc1)CN1CC[C@@](C)(c2cccc(O)c2)[C@@H](C)C1` (some centres unmarked) [Example 50, N-2-[(2-methylpropyl)amino]-2-oxo-ethyl]-3-[3,4-dimethyl-4-(3-hydroxyphenyl)-1-piperidinyl-2-phenylmethyl propanamide monohydrate hydrochloride], in assay [1], the “Ratio (AD50 mouse writhing test / ED50 mouse diarrhea test)” value amounted to 26 and the 50% effect level (ED50) was put at a dose of 0.54 mg/kg. The same molecule displayed an AD50 on opioid receptor of 14.3. Also, on mu receptor, affinity was put at a Ki of 1.2 nM. In addition, the inhibition at 0.01 µM on mu receptor (setting [2]) was found to be 94%. On mu receptor (setting [3]), the inhibition at 0.1 µM was found to be 100%.
As for `CC(C)OC(=O)CNC(=O)C(Cc1ccccc1)CN1CC[C@@](C)(c2cccc(O)c2)[C@@H](C)C1` (some centres unmarked) [Example 51, 2-[[2-(phenylmethyl)-3-[4-(3-hydroxyphenyl)-3,4-dimethyl-1-piperidinyl]-1-oxopropyl]-amino]ethanoic acid 2-propyl ester monohydrochloride], in assay [1], the “Ratio (AD50 mouse writhing test / ED50 mouse diarrhea test)” value amounted to 25 and the ED50 amounted to 0.15 mg/kg. Further, the AD50 on opioid receptor came to 3.8. On mu receptor, this molecule had an inhibitory constant (Ki) of 5.43 nM. In addition, the inhibition at 0.01 µM at mu receptor (setting [2]) is 85%. For the same molecule, the inhibition at 0.1 µM on mu receptor (setting [3]) came out at 97%.
Consider `C[C@H]1CN(CC(Cc2ccccc2)C(=O)NCC(=O)OCC2CCCCC2)CC[C@@]1(C)c1cccc(O)c1` (some centres unmarked) [Example 53, 2-[[2-(phenylmethyl)-1-oxo-3-[4-(3-hydroxyphenyl)-3,%-dimethyl-1-piperidinyl]propylamino]-ethanoic acid cyclohexylmethyl estermonohydrochloride], for which, in assay [1], the “Ratio (AD50 mouse writhing test / ED50 mouse diarrhea test)” value was over 23 and the 50% effect level (ED50) was put at a dose of 1.7 mg/kg. Further, the AD50 at opioid receptor is over 40. For the same molecule, the inhibition at 0.01 µM on mu receptor (20 min, 10 nM test compound, [3H] naloxone 0.5 nM, read-out: % displacement at 10 nM) stood at 2%. Also, the inhibition at 0.1 µM at mu receptor (20 min, 100 nM test compound, [3H] naloxone 0.5 nM, read-out: % displacement at 100 nM) was 11%.
